Assay results taken from patent publication US12180474B2, “Methods of treating porphyria” (University of Pittsburgh—Of the Commonwealth System of …, priority 2018, dated 2024).

What was measured:
Type in all cases: in vivo
Porcupine (PORCN) [1] = biological target: T1, Porcupine (PORCN) (Mus musculus, UniProt Q9JJJ7); test: Wnt-C59, GS and p-mTOR IHC in DDC-fed WT1/WT2 mice (Example 4)
T1 construct: from tissue; host or cells: whole mouse in vivo; liver and serum analysed
T1 sequence (Q9JJJ7 1-461): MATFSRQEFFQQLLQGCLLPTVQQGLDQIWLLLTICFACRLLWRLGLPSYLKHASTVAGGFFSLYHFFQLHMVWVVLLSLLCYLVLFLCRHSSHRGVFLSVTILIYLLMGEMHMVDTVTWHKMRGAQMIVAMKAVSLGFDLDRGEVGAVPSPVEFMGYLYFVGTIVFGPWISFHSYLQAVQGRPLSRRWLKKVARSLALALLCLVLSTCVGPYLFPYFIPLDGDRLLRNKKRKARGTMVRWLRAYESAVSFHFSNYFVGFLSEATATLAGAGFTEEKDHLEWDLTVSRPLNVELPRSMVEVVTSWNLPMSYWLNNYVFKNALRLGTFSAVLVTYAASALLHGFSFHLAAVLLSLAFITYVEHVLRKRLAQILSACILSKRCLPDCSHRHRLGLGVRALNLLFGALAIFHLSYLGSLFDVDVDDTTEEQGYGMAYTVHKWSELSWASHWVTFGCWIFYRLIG
Source text: To test the effect of Wnt-C59 on GS and p-mTOR levels, two-month old WT1/WT2 mice were exposed to a DCC diet, as described in Example 1, and received i.p. injections of Wnt-C59, as described in Example 2. Livers from the control and experimental groups were utilized for IHC, as described in Example 1.

Porcupine (PORCN) [2] = biological target: T1, Porcupine (PORCN); test: Wnt-C59 in WT1/WT2 mice, acute intermittent porphyria model (Example 3); conditions: 30 mg/kg i.p., vs control group
Porcupine (PORCN) [3] = biological target: T1, Porcupine (PORCN); test: Wnt-C59 in DDC-fed CD-1 mice (Example 2); conditions: 30 mg/kg i.p.
Method: Two-month old CD-1 mice were started on a 0.1% DDC diet to induce porphyria. Three days after starting the diet, mice received intraperitoneal (i.p.) injections of 30 mg/kg Porcupine (PORCN) inhibitor Wnt-C59. The Wnt-C59 was delivered on a five days on, two days off schedule for two weeks. Mice were sacrificed 6 hours after the final dose of Wnt-C59. Serum and livers from the control and experimental groups were utilized for IHC, Western blotting, and biochemical assays, as described in Example 1.

[4] = five days on, two days off for two weeks, 0.1% DDC diet

SMILES: Cc1cc(-c2ccc(CC(=O)Nc3ccc(-c4cccnc4)cc3)cc2)ccn1 [Wnt-C59]
- p-mTOR protein expression (IHC) (Porcupine (PORCN) [1]; DCC diet and Wnt-C59 injection): no expression
- GS protein expression (IHC) (Porcupine (PORCN) [1]; DDC diet and Wnt-C59 injection): no expression
- ALA-D mRNA levels (Porcupine (PORCN) [2]): significantly reduced
- ALA-S mRNA levels (Porcupine (PORCN) [2]): significantly reduced
- glutamine synthetase (GS), β-catenin activity (Porcupine (PORCN) [3]; DDC diet): decrease
- porphyrin accumulation (H&E) (Porcupine (PORCN) [3]; DDC diet): decreased
- serum ALP (Porcupine (PORCN) [3]; [4]): significantly reduced
- serum ALT (Porcupine (PORCN) [3]; [4]): significantly reduced
- serum AST (Porcupine (PORCN) [3]; [4]): significantly reduced
- serum total bilirubin (Porcupine (PORCN) [3]; [4]): significantly reduced
